From patent US20190194621A1, “MEDIUM FOR CULTURING STEM CELLS, METHOD FOR CULTURING STEM CELLS, GROWTH PROMOTER FOR STEM CELLS, AND CELL COMPOSITION AND METHOD FOR PRODUCING SAME” (KYOWA HAKKO BIO CO., LTD., priority 2016, published 2019)

Tested on: human iPS cell 253G1 cell line
Assay: Culture of human iPS cells in growth-factor-free medium with added compound; count of Hoechst-stained nuclei and OCT3/4 positive cells
Type: cell-based
Details: for number of nuclei counted, increase as compared with the medium to which no growth factor was added (−GF) / expression ratio of OCT3/4 (proportion of Oct3/4 positive cells among Hoechst 33342 stained cells): 5 μM HA100, 0.05 μM DZNep or 0.01 nM TTNPB in growth-factor-free medium; for number of nuclei counted, increase as compared with the medium to which no growth factor was added (−GF): 3 days, 37° C., 10% CO2, average of four experiments; for expression ratio of OCT3/4 (proportion of Oct3/4 positive cells among Hoechst 33342 stained cells): +GF = 2 ng/mL activin A and 5 ng/mL bFGF
Description: A medium obtained by adding and dissolving separate components shown in the following Table 1 sterilized through a 0.22 μm filter, 10 μg/mL insulin (manufactured by Sigma-Aldrich Co. LLC.), 5 μg/mL apotransferrin (manufactured by Sigma-Aldrich Co. LLC.), and oleic acid-conjugated recombinant human serum albumin (manufactured by Sigma-Aldrich Co. LLC.) in a known medium (mESF Basal Medium, manufactured by Wako Pure Chemical Industries, Ltd.) was used as a medium in a negative control group. A medium obtained by adding 5 μM HA100 that is a ROCK inhibitor and a PKC inhibitor, 0.05 μM DZNep that is a histone methyltransferase inhibitor, or 0.01 nM TTNPB that is a retinoic acid receptor agonist to the medium of the negative control group was used as a medium in an evaluation target group. Further, a medium obtained by adding 2 ng/mL activin A (manufactured by Wako Pure Chemical Industries, Ltd.) and 5 ng/mL bFGF (manufactured by Wako Pure Chemical Industries, Ltd.) to the medium of the negative control group was used as a medium of a positive control group. The prepared medium in the negative control group, media in the evaluation target group (the medium obtained by adding HA100 to the medium in the negative control group, the medium obtained by adding DZNep to the medium in the negative control group, and the medium obtained by adding TTNPB to the medium in the negative control group), and medium in the positive control group were added to a 24-well plate for cell culture (manufactured by Sumitomo Bakelite Company Limited) at 1 mL/well, and a human iPS cell 253G1 cell line (established by Center for iPS Cell Research and Application, Kyoto University and obtained from iPS Academia Japan, Inc.) was cultured in the presence of 10% CO2 at 37° C. for 3 days. With respect to the cultured cells, the nuclei were stained with Hoechst 33342 (manufactured by Dojindo Laboratories). Further, OCT3/4 protein in the cells was stained with OCT-3/4 antibody C-10 (manufactured by Santa Cruz Biotechnology) and […] anti-mouse IgG (H+L) Secondary Antibod Alexa Fluor 488 conjugate (manufactured by Invitorogen Co.). Thereafter, the number of stained nuclei and the number of Oct3/4 positive cells were counted using In cell analyzer (manufactured by GE Healthcare, Inc.).

| Compound | number of nuclei counted, increase as compared with the medium to which no growth factor was added (−GF) [times] | expression ratio of OCT3/4 (proportion of Oct3/4 positive cells among Hoechst 33342 stained cells) (3 days culture) [%] | growth compared with the medium to which a growth factor was added (+GF) (5 μM HA100 in growth-factor-free medium, 3 days culture) |
| --- | --- | --- | --- |
| C/C(=C\c1ccc(C(=O)O)cc1)c1ccc2c(c1)C(C)(C)CCC2(C)C [TTNPB, 4-[(E)-2-(5,6,7,8-tetrahydro-5,5,8,8-tetramethyl-2-naphthalenyl)-1-propenyl]benzoic acid] | 1.24 | 84.2 |  |
| Nc1nccc2c1ncn2C1C=C(CO)C(O)C1O (stereo not shown) [DZNep, 3-deazaneplanocin] | 1.35 | 95.6 |  |
| Cl.O=S(=O)(c1cccc2cnccc12)N1CCNCC1 [HA100, 1-(5-isoquinolinesulfonyl)piperazine hydrochloride] | 1.83 | 89.3 | growth comparable to that in the case of using the medium to which a growth factor was added |
